Source: patent US20240165112A1, “THERAPY FOR THE TREATMENT OF CANCER” (Bristol-Myers Squibb Company, priority 2022, published 2024)

Test system: TNC, ACTA2, PAI-1 transcripts in normal human lung fibroblasts (NHLF)
Assay: TGF-β-induced gene transcription, fibroblast activation markers (RT-PCR)
Format: cell-based
Protocol: Normal human lung fibroblasts (NHLF, black bars) were treated with 10 ng/mL TGF-β after 1 hour pre-incubation with a range of Compound 1 concentrations, and cells were lysed 24 hours later. Indicated gene transcripts were assessed by RT-PCR relative to GAPDH. Data were normalized to expression after TGF-β treatment in the presence of only DMSO. Data are presented as mean of 3 biological replicates, and error bars indicate standard deviation. The graphs are representative of at least 2 independent experiments. *P<0.05; ** P<0.01, ***P<0.001; ****P<0.0001 by student's t-test. Abbreviations: ACTA2, smooth muscle actin; CAF, cancer associated fibroblasts; DMSO, dimethyl sulfoxide; GAPDH, glyceraldehyde-3-phosphate dehydrogenase; NHLF, normal lung human fibroblasts; PAI-1, plasminogen activator inhibitor 1; RNA, ribonucleic acid; RT-PCR, reverse transcription polymerase chain reaction; TGF-β, transforming growth factor beta; TNC, tenascin C.
Cells were seeded (75,000 NHLF and lung CAF cells) into 12 well plates with RPMI+10% FBS and allowed to adhere overnight at 37° C., 5% CO2. After one day of serum starvation, cells were pre-treated for 1 hour with DMSO or Compound 1 at 30 μM, 10 μM, 3 μM, 1 μM, or 0.3 μM and then stimulated with 10 ng/mL TGF-β. The 24-hour Compound 1 treated samples were harvested for ribonucleic acid (RNA) extraction.
Cells were directly lysed in Qiagen™ Buffer RLT Plus with 1% 2-Mercaptoethanol added. Total RNA from tumor samples and cell lines was isolated using Qiagen™ AllPrep® DNA/RNA 96 Kit according to manufacturer's protocol. Isolated RNA was analyzed with NanoDrop™ ONE Spectrophotometer for concentration. The RNA integrity was also analyzed on Agilent TapeStation 4200.
Complimentary deoxyribonucleic acid (cDNA) was prepared by using Invitrogen™ SuperScript™ III First-Strand Synthesis SuperMix for qRT-PCR. Up to 1 μg of RNA was prepared according to manufacturer's protocol, using Applied Biosystems™ Veriti™ 96-well thermal cycler. The reverse transcription (RT) program used for cDNA synthesis: • 1. 25° C., 10 minutes • 2. 50° C., 30 minutes • 3. 85° C., 5 minutes • 4. Add E. Coli RNase H, 37° C., 20 minutes • 5. Hold at 4° C. Quantitative Reverse Transcription Polymerase Chain Reaction (qRT-PCR).
The cDNA was diluted 1:3 fold in nuclease-free water for quantitative polymerase chain reaction (qPCR) setup. Human and mouse TaqMan™ assays for targeted genes were ordered through Applied Biosystems™. TaqMan™ assay selection was based on manufacturer's recommendation. The qRT-PCR was set up using Applied Biosystems™ TaqMan™ Fast Advanced Master Mix according to manufacturer's protocol. The qRT-PCR was run on QuantStudio™ 12 Flex with fast run mode: • 1. 95° C., 20 seconds • 2. 95° C., 1 second • 3. 60° C., 20 seconds • 4. Repeat steps 2-3, 39 times
The qPCR data was analyzed, and all cycle threshold (Ct) values were normalized to glyceraldehyde-3-phosphate dehydrogenase (GAPDH) (ΔCt). Analysis was plotted and presented using GraphPad Prism (GraphPad, Version 8.4.1, San Diego, CA).
The levels of phospho-c-Jun in NHLF and non-small cell lung CAF in response to TGF-β in the presence of DMSO or varying concentrations of Compound 1 were summarized in FIG. 7. Cells were treated with DMSO or Compound 1 for 1 hour prior to treatment with 10 ng/mL TGF-β for an additional 2 hours. Phospho-c-Jun levels were determined by western blot analysis and were normalized to DMSO treated samples. […] The relative expression of fibroblast activation markers in NHLF and lung CAF in response to TGF-β in the presence of DMSO or varying concentrations of Compound 1 were summarized in FIGS. 8A-8C and FIGS. 9A-9C. Cells were treated with DMSO or Compound 1 for 2 hours prior to treatment with 10 ng/mL TGF-β. The RNA expression was assessed 24 hours after TGF-β treatment.

[1] = NHLF stimulated with TGFβ, 10 μM Compound 1
[2] = NHLF, 30 μM Compound 1, 10 ng/mL TGF-β, 24 hours

C[C@@H]1CC[C@@H](Nc2nc(NC(C)(C)C)ncc2C(N)=O)C[C@H]1O [Compound 1, 2-(tert-butylamino)-4-((1R,3R,4R)-3-hydroxy-4-methylcyclohexylamino)-pyrimidine-5-carboxamide]
ACTA2 reduced relative to DMSO [1]: 4.1% | TNC reduced relative to DMSO [1]: 66% | TNC induction, reduction from peak activation to baseline (NHLF, 3 μM Compound 1, 10 ng/mL TGF-β, 24 hours): 48% | PAI-1 induction, reduction from peak activation to baseline (NHLF, 10 μM Compound 1, 10 ng/mL TGF-β, 24 hours): 20% | ACTA2 induction, reduction from peak activation to baseline [2]: 95% | PAI-1 induction, reduction from peak activation relative to baseline [2]: 57% | TNC expression [2]: lower than samples that never received TGF-β
